In US20230414735A1, “NEOANTIGENS AND METHODS OF THEIR USE” (priority 2016, published 2023):
Like-named read-outs stand apart in the source and are kept apart here. Where no end group is shown, it is not given here.

What was measured:
HLA Class I molecules = experiment: HLA class I binding stability assay (pMHC-I complex dissociation, 125I-labeled β2m, scintillation counts); set-up: species or system human
Procedure: These reactions are carried out in streptavidin coated microplates to bind th biotinylated MHC-I heavy chains to the surface and allow measurement of radiolabeled light chain to monitor complex formation. Dissociation is initiated by addition of higher concentations of unlabled light-chain and incubation at 37° C. Stability is defined as the length of time in hours it takes for half of the complexes to dissociate, as measured by scintillation counts

HLA class I molecule = experiment: HLA class I peptide binding affinity assay (inhibition of 125I-radiolabeled probe peptide binding to purified HLA); set-up: species or system human; settings: read-out: Observed Affinity (IC50, (nM))
Procedure: Epstein-Barr virus (EBV)-transformed homozygous cell lines, fibroblasts, CIR, or 721.22 transfectants are used as sources of HLA class I molecules. […] HLA molecules are purified from lysates by affinity chromatography. The lysates are passed over a column of Sepharose CL-4B beads coupled to an appropriate antibody. […] A 1/25 volume of 2.0 M Tris, pH 6.8, is added to the eluate to reduce the pH to […]. Eluates are then concentrated by centrifugation in Centriprep 30 concentrators (Amicon, Beverly, MA). Protein content is evaluated by a BCA protein assay (Pierce Chemical Co., Rockford, IL) and confirmed by SDS-PAGE.
Following incubation, MHC-peptide complexes are separated from free peptide by gel filtration on 7.8 mm×15 cm TSK200 columns (TosoHaas 16215, Montgomeryville, PA). Because the large size of the radiolabeled peptide used for the DRB1*1501 (DR2w2(31) assay makes separation of bound from unbound peaks more difficult under these conditions, all DRB1*1501 (DR2w2(31) assays were performed using a 7.8 mm×30 cm TSK2000 column eluted at 0.6 mLs/min. The eluate from the TSK columns is passed through a Beckman 170 radioisotope detector, and radioactivity is plotted and integrated using a Hewlett-Packard 3396A integrator, and the fraction of peptide bound is determined.
Radiolabeled peptides are iodinated using the chloramine-T method. […] All subsequent inhibition and direct binding assays are performed using these HLA concentrations.
Since under these conditions [label]<[HLA] and IC50≥[HLA], the measured IC50 values are reasonable approximations of the true KD values. […] For database purposes, and inter-experiment comparisons, relative binding values are compiled. These values can subsequently be converted back into IC50 nM values by dividing the IC50 nM of the positive controls for inhibition by the relative binding of the peptide of interest.
HLA binding assays were used to evaluate either the affinity of interaction of a given epitope with a selected HLA molecule or the stability.
The measurements are plotted against the predicted affinity in FIG. 1.

[1] = allele A02.01, pMHC-I dissociation at 37° C.
[2] = allele A24.02, pMHC-I dissociation at 37° C.

Molecule | Stability (T1/2 (h)) (HLA Class I molecules; allele A02.01, 37° C.) [h] | IC50 (HLA class I molecule; allele A02.01) [nM] | Stability (T1/2 (h)) (HLA Class I molecules; [1]) [h] | further results
YQQQQQSDL | 0.4 | 799 | – | IC50 (HLA class I molecule; allele B08.01): 18900 nM
CLADVLLSV | – | 219 | 24 | –
VLLSVHLIV | – | 72 | 11 | –
FSGEYIPTV | 6.8 | 3 | – | –
CC(C)[C@H](N)C(=O)N[C@H](C(=O)N1CCC[C@H]1C(=O)N[C@@H](CS)C(=O)N[C@@H](CCC(=O)O)C(=O)N1CCC[C@H]1C(=O)N1CCC[C@H]1C(=O)N[C@@H](CCC(=O)O)C(=O)N[C@H](C(=O)O)C(C)C)C(C)C | 0.9 | 187 | – | –
LLQEFDVQEA | 2.5 | 45 | – | –
WLHKRGKYI | – | 1250 | 1.2 | Stability (T1/2 (h)) (HLA Class I molecules; allele B08.01, pMHC-I dissociation at 37° C.): 1.3 h; IC50 (HLA class I molecule; allele B08.01): 417 nM
SLYIVGFYGA | 0.4 | 390 | – | –
GLLLEMLDA | – | 558 | 0.4 | –
PLNDLLLEM | – | 151 | 4.2 | –
YLGNHMNIA | 0.6 | 117 | – | IC50 (HLA class I molecule; allele B08.01): 872 nM
GVYTFLPST | – | 779 | 1.3 | –
LMELMAGGDL | – | 311 | 8.9 | –
CC[C@H](C)[C@H](NC(=O)[C@@H](N)CC(C)C)C(=O)N[C@@H](CCSC)C(=O)N[C@@H](CCC(N)=O)C(=O)N[C@@H](CC(C)C)C(=O)N[C@@H](CCSC)C(=O)N1CCC[C@H]1C(=O)N[C@@H](Cc1ccccc1)C(=O)NCC(=O)N[C@@H](CS)C(=O)O | – | 177 | 0.4 | –
LVVVGACGV | 0.6 | 1210 | – | –
PLYGLLLEM | – | 640 | 0.7 | –
LQMDFLVHPA | – | 68 | 1.5 | –
ILMELMAGG | – | 223 | 0.5 | –
WMTETLFDIV | 0.4 | 40 | – | IC50 (HLA class I molecule; allele A01.01): 14400 nM

Molecule | Stability (T1/2 (h)) (HLA Class I molecules; allele A02.01, 37° C.) [h] | IC50 (HLA class I molecule; allele A02.01) [nM] | Stability (T1/2 (h)) (HLA Class I molecules; [1]) [h] | further results
ALSASNSCFI | 0.8 | 226 | – | –
LLAFWDSQV | 12.8 | 68 | – | –
CC(C)C[C@H](NC(=O)[C@H](C)N)C(=O)N[C@@H](CC(N)=O)C(=O)N[C@@H](CO)C(=O)N[C@@H](CCC(=O)O)C(=O)N[C@@H](C)C(=O)N[C@@H](CC(C)C)C(=O)N[C@@H](CO)C(=O)N[C@H](C(=O)N[C@H](C(=O)O)C(C)C)C(C)C | 2.9 | 15 | – | –
KLGGGQHGEV | – | 387 | 0.4 | –
VMAYVMAGV | 16.5 | 2 | – | –
YLVIQLQDKF | – | 2060 | – | Stability (T1/2 (h)) (HLA Class I molecules; [2]): 2.6 h; IC50 (HLA class I molecule; allele A24.02): 2150 nM
VLHECNSLYI | 5.1 | 10 | – | –
PLCDLLLEM | – | 602 | 0.8 | –
VMAGLGSPYV | 2.9 | 102 | – | –
KLFSCLSFL | – | 6 | 14.3 | Stability (T1/2 (h)) (HLA Class I molecules; allele A03.01, pMHC-I dissociation at 37° C.): 0.8 h
PLSDLLLEM | – | 404 | 2.7 | –
CC(C)C[C@H](NC(=O)[C@H](CC(C)C)NC(=O)[C@H](CC(C)C)NC(=O)CNC(=O)[C@H](Cc1ccc(O)cc1)NC(=O)[C@H](CC(C)C)NC(=O)[C@@H]1CCCN1C(=O)[C@@H](NC(=O)[C@@H](N)C(C)C)C(C)C)C(=O)O | – | 1040 | 0.6 | –
WMTETLFDI | 4 | 14 | – | –
RVAKIADFGM | – | 125 | 0.5 | Stability (T1/2 (h)) (HLA Class I molecules; allele B07.02, pMHC-I dissociation at 37° C.): 0.2 h
PLCDLLLEML | – | 2010 | 0.9 | –
KGPELFPLI | – | 101 | 0.3 | Stability (T1/2 (h)) (HLA Class I molecules; [2]): 1.7 h; IC50 (HLA class I molecule; allele A24.02): 14 nM
IMQLMPFGC | – | 1610 | 0.4 | –
MNIANLLGA | 0.3 | 128 | – | –
MNWRPILTII | 0.4 | 1030 | – | –
